Reference: PubChem BioAssay (NCI)
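Growth conditions: 96-well plates. Treatment: test compound, 48 hours, 5 concentrations. Analysis: linear interpolation between bracketing concentrations; unreached endpoints set to highest concentration. Here, GI50 denotes the concentration required for 50% inhibition of growth. TGI is the concentration that stops growth completely.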

Key:
Experiment in all cases: growth of human tumour cells (NCI), 48 h
COLO 205 colon = test system: COLO 205 colon
HCT-116 colon = test system: HCT-116 colon
RPMI-8226 leukemia = test system: RPMI-8226 leukemia
HOP-62 NSCLC = test system: HOP-62 NSCLC
OVCAR-4 ovarian = test system: OVCAR-4 ovarian
SF-295 CNS = test system: SF-295 CNS
NCI-H522 lung = test system: NCI-H522 lung
HT29 colon = test system: HT29 colon
EKVX NSCLC = test system: EKVX NSCLC
M14 melanoma = test system: M14 melanoma

Structure (SMILES) | TGI (COLO 205 colon) [µM] | TGI (HCT-116 colon) [µM] | TGI (RPMI-8226 leukemia) [µM] | TGI (HOP-62 NSCLC) [µM] | TGI (OVCAR-4 ovarian) [µM] | TGI (SF-295 CNS) [µM] | TGI (NCI-H522 lung) [µM] | TGI (HT29 colon) [µM] | TGI (EKVX NSCLC) [µM] | TGI (M14 melanoma) [µM] | GI50 (RPMI-8226 leukemia) [µM] | GI50 (SF-295 CNS) [µM] | GI50 (HT29 colon) [µM]
Cc1n(Cc2ccccc2)nc2sc(N)n[n+]12 | > 100 | > 100 | > 100 | > 100 | > 100 | > 100 | > 100 | > 100 | > 100 | > 100 |  |  | 
Cn1cc(-c2csc(-c3cn(C)c4ccccc34)n2)c2ccccc21 | > 100 | > 100 | 85 | 45.7 | > 100 | > 100 | > 100 | > 100 |  | > 100 |  |  | 
O=c1oc2c(Cl)cc(Cl)cc2cc1C1=CSC2=NCCN12 | > 100 | > 100 | > 100 | > 100 | > 100 | > 100 |  | > 100 | > 100 | > 100 |  |  | 
Cc1ccc(C(=O)N/N=C(\N=Nc2ccc(C(=O)O)cc2)c2ccc(N(CCC#N)CCC#N)cc2C)cc1 | > 100 | > 100 | > 100 | > 100 | > 100 | > 100 |  | > 100 | > 100 | > 100 |  |  | 
COc1cc(OC)c2[nH]c3c(O)c(-c4c(C)cc5c([nH]c6c(OC)cc(OC)cc65)c4O)c(C)cc3c2c1 |  | 15.7 | 23.7 | 23.9 | 21.4 | 21.8 | 16.6 | 14.8 | 12.7 | 15.5 | 10.5 | 10.2 | 8.03
CCCCCCCCC/C=C1\CCC(CN(C)C)C1=O (stereo not given) | 5.37 | 3.67 |  | 4.32 |  | 12.7 | 4.78 | 3.16 | 4.81 | 3.57 |  |  | 
Cc1ccc2c(/C=C/c3ccc(N(C)C)cc3)ccc(C(C)C)cc1-2 | > 100 | > 100 | > 100 | > 100 |  | > 100 | > 100 | > 100 | > 100 | > 100 |  |  | 
CCOc1ccc(N/C(=C(/C(Cl)=C(/Cl)NC(C)(C)C)[N+](=O)[O-])n2nnc3ccccc32)cc1 | 36.1 | 33.7 | > 100 | > 100 | > 100 | 78.8 |  | > 100 | > 100 | > 100 |  |  | 
OC1CSc2nc3ccccc3n2C1 (stereo not given) | > 100 | > 100 | > 100 |  |  | > 100 |  | > 100 | > 100 | > 100 |  |  | 
ON=C(CC(O)(C(F)(F)Cl)C(F)(F)Cl)CC(O)(C(F)(F)Cl)C(F)(F)Cl | > 10 | > 10 | > 10 | 9.78 | > 10 | > 10 | > 10 | > 10 | > 10 |  |  |  | 
O=C1CC(=O)NC(=NNS(=O)(=O)c2ccc(Cl)cc2)N1 | > 100 | > 100 | > 100 | > 100 | > 100 | > 100 | > 100 | > 100 |  | > 100 |  |  | 
